Results taken from ChEMBL document CHEMBL1153885, “Design, synthesis and evaluation of novel uracil acetamide derivatives as potential inhibitors of Plasmodium falciparum dUTP nucleotidohydrolase” (Eur J Med Chem, 2009).
One block for each molecule: values may come before it.

Tests used:
[1] = Selectivity ratio of human dUTPase to Plasmodium falciparum dUTPase
L6 = assay: Cytotoxicity against rat L6 cells; type: cell-based
dUTP pyrophosphatase = molecular target: T1, dUTP pyrophosphatase (Plasmodium falciparum 3D7, UniProt Q8II92); assay: Inhibition of Plasmodium falciparum dUTPase
T1 sequence (Q8II92 whole entry): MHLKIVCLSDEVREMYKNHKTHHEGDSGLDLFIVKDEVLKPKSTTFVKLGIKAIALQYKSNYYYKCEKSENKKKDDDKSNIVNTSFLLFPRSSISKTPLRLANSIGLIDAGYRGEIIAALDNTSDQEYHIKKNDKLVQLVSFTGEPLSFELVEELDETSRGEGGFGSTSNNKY

[2] = molecular target: T2, Deoxyuridine 5'-triphosphate nucleotidohydrolase, mitochondrial (Homo sapiens, UniProt P33316); assay: Inhibition of human dUTPase
T2 sequence (P33316 whole entry): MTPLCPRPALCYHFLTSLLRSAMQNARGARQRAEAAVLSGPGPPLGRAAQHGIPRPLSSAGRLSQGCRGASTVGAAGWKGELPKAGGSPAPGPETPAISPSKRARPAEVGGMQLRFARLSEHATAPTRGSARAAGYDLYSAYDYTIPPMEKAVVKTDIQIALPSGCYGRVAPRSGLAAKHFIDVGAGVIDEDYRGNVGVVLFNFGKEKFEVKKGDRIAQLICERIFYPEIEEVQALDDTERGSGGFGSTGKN

Plasmodium falciparum = assay: Antiplasmodial activity against chloroquine-resistant Plasmodium falciparum K1 infected erythrocytes; type: functional, organism-based

Selectivity Index [1]: > 555
Compound: O=c1ccn(CCCCCCNC(c2ccccc2)(c2ccccc2)c2ccccc2)c(=O)[nH]1
Activity (L6): 40 µM

Compound: O=C(Cn1ccc(=O)[nH]c1=O)NCCCNC(c1ccccc1)(c1ccccc1)c1ccccc1
Ki (dUTP pyrophosphatase): 23.1 µM
Ki [2]: > 1000 µM
Selectivity Index [1]: > 43
IC50 (Plasmodium falciparum): 2.5 µM
Activity (L6): 102.2 µM

Selectivity Index [1]: > 232
Compound: O=c1ccn(CCCCCNC(c2ccccc2)(c2ccccc2)c2ccccc2)c(=O)[nH]1
Activity (L6): 39 µM

Compound: O=C(Cn1ccc(=O)[nH]c1=O)N(CCO)CCNC(c1ccccc1)(c1ccccc1)c1ccccc1
Ki (dUTP pyrophosphatase): > 1000 µM
Ki [2]: > 1000 µM
Selectivity Index [1]: > 1
IC50 (Plasmodium falciparum): > 83 µM
Activity (L6): > 373 µM

Compound: O=C(Cn1ccc(=O)[nH]c1=O)NCCNCCNC(c1ccccc1)(c1ccccc1)c1ccccc1
Ki (dUTP pyrophosphatase): > 1000 µM
Ki [2]: > 1000 µM
Selectivity Index [1]: > 1
IC50 (Plasmodium falciparum): 4.5 µM
Activity (L6): 52.7 µM

Compound: O=C(Cn1ccc(=O)[nH]c1=O)NCCCCNC(c1ccccc1)(c1ccccc1)c1ccccc1
Ki (dUTP pyrophosphatase): > 1000 µM
Ki [2]: > 1000 µM
Selectivity Index [1]: > 1
IC50 (Plasmodium falciparum): 2.9 µM
Activity (L6): 42.7 µM

Compound: CC(C)(C)[Si](OCCCCNC(=O)Cn1ccc(=O)[nH]c1=O)(c1ccccc1)c1ccccc1
Ki (dUTP pyrophosphatase): > 1000 µM
Ki [2]: > 1000 µM
Selectivity Index [1]: > 1
IC50 (Plasmodium falciparum): 3.7 µM
Activity (L6): 33.4 µM

Compound: O=C(Cn1ccc(=O)[nH]c1=O)NCCCNCCCNC(c1ccccc1)(c1ccccc1)c1ccccc1
Ki (dUTP pyrophosphatase): > 1000 µM
Ki [2]: > 1000 µM
Selectivity Index [1]: > 1
IC50 (Plasmodium falciparum): 3.9 µM
Activity (L6): 76.7 µM

Compound: O=C(Cn1ccc(=O)[nH]c1=O)NCCNC(c1ccccc1)(c1ccccc1)c1ccccc1
Ki (dUTP pyrophosphatase): 37.3 µM
Ki [2]: > 1000 µM
Selectivity Index [1]: > 26
IC50 (Plasmodium falciparum): 4.2 µM
Activity (L6): 53 µM

Compound: CC(C)(C)[Si](OCCCNC(=O)Cn1ccc(=O)[nH]c1=O)(c1ccccc1)c1ccccc1
Ki (dUTP pyrophosphatase): > 1000 µM
Ki [2]: > 1000 µM
Selectivity Index [1]: > 1
IC50 (Plasmodium falciparum): 4.6 µM
Activity (L6): 88.9 µM

Compound: CC(C)(C)[Si](NCCCCCCn1ccc(=O)[nH]c1=O)(c1ccccc1)c1ccccc1
Ki (dUTP pyrophosphatase): 8.5 µM
Ki [2]: > 1000 µM
Selectivity Index [1]: > 117
IC50 (Plasmodium falciparum): 3.9 µM
Activity (L6): 18 µM
